Results as given in patent US10072051B2, “Anti-inflammatory lipopeptide and preparing method and application thereof” (EAST CHINA NORMAL UNIVERSITY, priority 2012, dated 2018).
“Also recorded” adds a separate entry of the source.

Legend:
Assay type in all cases: cell-based
β-catenin = β-catenin translocation into the nucleus in NHEKs; conditions: LiCl, nucleocytoplasmic separation
NHEKs = test: poly(I:C)-induced TNF-α and IL-6 expression in NHEKs, real-time RT-PCR
Method: NHEKs were seeded in 24-well plates to grow to 70˜80% confluence, 2 ug/ml poly(I:C) were added. Different concentrations of the lipopeptide as Formula (1) in Example 1 were used to treat NHEKs. After 24 h, total RNA was extracted and cDNA was generated to detect the TNF-α and IL-6 expression by using real-time RT-PCR. […]

p65 [1] = test: p65 phosphorylation in NHEKs, Western blot; conditions: poly(I:C) alone, 4 hours and 12 hours
Method: NHEKs were treated with PBS, poly(I:C), lipopeptide, poly(I:C) with lipopeptide for 4 hours or 12 hours. And then RIPA lysate was added to lyse the cell. The protein concentration was detected by using BCA protein assay kit, and 40 ug of proteins were separated by SDS-PAGE. The effects of the lipopeptide on p65 phosphorylation were detected by Western blot.

PPAR-γ and p65 = test: interaction between PPAR-γ and p65 in NHEKs, co-immunoprecipitation; conditions: poly(I:C) 4 hours or 12 hours, immunoprecipitation with p65 antibody
Method: Example 4 illustrates that poly(I:C) can induce p65 phosphorylation and translocation, and poly(I:C) induces the inflammatory response through PPAR-γ. The aim of Example 5 is to illustrate the interaction between the translocated p65 and PPAR-γ in the nucleus. NHEKs were treated with poly(I:C) for 4 hours or 12 hours. Whole-cell extracts were prepared by using lysis buffer containing NP40 and incubated with the p65 antibody at 4° C. for overnight. Protein AG beads were added and incubated at 4° C. for 1-2 hours. Beads were then washed twice with washing buffer. The immunoprecipitates were eluted with 20 ul 2× sodium dodecyl sulfate (SDS) loading buffer and separated by PAGE. The proteins were transferred to nitrocellulose membrane and probed with PPAR-γ antibody.

p65 [2] = test: p65 translocation into the nucleus in NHEKs (immunofluorescence, Western blot of nuclear proteins); conditions: poly(I:C) alone; for p65 translocation into the nucleus: immunofluorescence
Method: NHEKs were treated with PBS or poly(I:C) for 4 hours, and fixed with formaldehyde for 15 min followed by adding ice-cold 0.25% TritonX-100 and hydrogen peroxide. Cells were incubated with anti-p65 antibody at 4° C. for overnight after blocked with BSA for 0.5 hour. Next day, the cells were incubated with the second antibody (FITC-goat anti Rabbit IgG) and visualized under the microscope.
NHEKs were treated with PBS, lipopeptide, poly(I:C) with or without lipopeptide for 12 hours, and fixed with formaldehyde for 15 min followed by adding ice-cold 0.25% TritonX-100 and hydrogen peroxide. Cells were stained with anti-p65 antibody for overnight after blocked with BSA for 0.5 h. Then the cells were incubated with the second antibody (FITC-goat anti Rabbit IgG) and visualized under the microscope.
NHEKs were treated with PBS, poly(I:C), lipopeptide, poly(I:C) with lipopeptide for 12 hours. Proteins from nucleus were isolated and separated by PAGE. The p65 in the nucleus was detected by Western blot. […] Thus the lipopeptide has no effect on poly(I:C)-induced p65 translocation into the nucleus.

keratinocytes (NHEK) = test: OVA-stimulated keratinocytes (NHEK), real-time RT-PCR; conditions: NHEKs treated with PPARγ inhibitor
Method: To mimics the condition of atopic dermatitis keratinocytes was stimulated by ovalbumin (OVA). To test the inhibitory effect of the lipopeptide on inflammatory response in atopic dermatitis, PBS, OVA, lipopeptide, lipopeptide plus OVA were used to stimulate keratinocytes (NHEK) and RNA was extracted after 24-hour stimulation. The expression of TNF-α and IL-6 was analyzed by real-time RT-PCR.

[3] = NHEKs treated with poly(I:C) alone, 24 h

For [Cl-].[Li+] [LiCl], the β-catenin translocation (β-catenin) was “induces” and the “poly(I:C)-induced inflammatory response” value (NHEKs; NHEKs, 24 hours) was “inhibits”.
For N.S=C(S)N1CCCC1 [PDTC], the “expression of IL-6 induced by poly(I:C)” value (NHEKs; NHEKs, 24 h) was “inhibited” and the “expression of TNF-α induced by poly(I:C)” value (NHEKs; NHEKs, 24 h) was “inhibited”.
With poly(I:C) the p65 phosphorylation (p65 [1]) was “significantly induces”, the “interaction between PPAR-γ and P65” value (PPAR-γ and p65) was “significantly induces” and the “p65 translocation into the nucleus” value (p65 [2]; 4 hours) was “obviously induces”. For the same compound, the “level of p65 in the nucleus” value (p65 [2]; 12 hours, Western blot) was “significantly increases”, the “p65 translocation into the nucleus” value (p65 [2]; 12 hours) was “obviously induces” and the IL-6 expression (NHEKs; [3]) was “dramatically induces; also recorded: dramatically increases”. The TNF-α expression (NHEKs; [3]) was “dramatically induces; also recorded: dramatically increases”.
For O=C(Nc1ccccc1)c1cc([N+](=O)[O-])ccc1Cl [GW9662], the “OVA-induced expression of inflammatory factor” value (keratinocytes (NHEK)) was “significantly decreased”, the “expression of IL-6 induced by poly(I:C)” value (NHEKs; NHEKs, 24 h) was “significantly inhibited” and the “expression of TNF-α induced by poly(I:C)” value (NHEKs; NHEKs, 24 h) was “significantly inhibited”.
